Assay results taken from patent publication US7375092B2, “Lunasin peptides” (Regents of the University of California, priority 1997, dated 2008).

What was measured:
mammalian cells = assay: Mitotic disruption by peptide panel in mammalian studies; type: cell-based; conditions: deletion mutant and synthetic fusion peptides
Text: Similar mitotic disruption is observed using a large panel of lunasin and alisin deletion mutant peptides (lunasin-del-n and alisin-del-n) and lunasin/alisin-like synthetic peptides (Gm2S-1-syn-n). Exemplary active lunasin-del peptides in these mammalian studies include (again using N→C nomenclature convention): • lunasin-del-1: MRG—residues 57-64 of SEQ ID NO:2 fusion protein • lunasin-del-2: α-tubulin—residues 54-64 of SEQ ID NO:2 fusion protein • lunasin-del-3: β-tubulin—residues 48-63 of SEQ ID NO:2 fusion protein • lunasin-del-4: MAP2 —residues 26-64 of SEQ ID NO:2 fusion protein • lunasin-del-5: Mapmodulin—residues 57-64 of SEQ ID NO:2 fusion protein • lunasin-del-6: GFP—residues 54-64 of SEQ ID NO:2 fusion protein • lunasin-del-7: MAP4—residues 44-63 of SEQ ID NO:2 fusion protein • lunasin-del-8: FLAGG—residues 30-64 of SEQ ID NO:2 fusion protein • lunasin-del-9: CYCLIN A—residues 57-64 of SEQ ID NO:2 fusion protein • lunasin-del-10: CYCLIN B1—residues 54-64 of SEQ ID NO:2 fusion protein • lunasin-del-11: CYCLIN B2—residues 40-63 of SEQ ID NO:2 fusion protein • lunasin-del-12: CYCLIN B3—residues 34-64 of SEQ ID NO:2 fusion protein • lunasin-del-13: SH2—octa-aspartate fusion protein • lunasin-del-14: SH3—octa-aspartate fusion protein • lunasin-del-15: SEQ ID NO:2, residues 48-55—MRG-octa-aspartate fusion protein • lunasin-del-16: SEQ ID NO:2, residues 48-55—SEQ ID NO:2, residues 48-55—octa-aspartate fusion protein • lunasin-del-17: MRG-tetrta-aspartate-tetra glutamate fusion protein • lunasin-del-18: SEQ ID NO:2, residues 48-55-octa-glutamate fusion protein • lunasin-del-19: SEQ ID NO:2, residues 1-21-MRG-deca-glutamate fusion protein • lunasin-del-20: SEQ ID NO:2, residues 48-55—SEQ ID NO:2, residues 48-55—tetra-aspartate-tetra glutamate fusion protein
Alternatively, the peptides are introduced indirectly by expression within the targeted cell. Such expression may be effected by transciently or by upregulation of a stably introduced peptide-encoding gene.

[1] = tested on: cotyledon and endosperm parynchematous cells; assay: Plant transformation: mitotic disruption in developing seeds; type: in vivo; conditions: deletion mutant and synthetic fusion peptides
Text: Cereal endosperm and legume cotyledon make up at least 85% of the seed weight and that seed size is genetically correlated to crop yield by at least 80%. […] To accomplish this, the 5′ regulatory regions of soybean conglycinin gene (a 170 bp DNA sequence element that is 200 nucleotides upstream of the transcription start site conferring cotyledon-specific expression (Chen et al., 1988, EMBO J 7:297) and rice glutelin gene (a 121 bp DNA sequence element that is 437/317 nucleotide upstream of the transcription start site conferring endosperm-specific expression (Yoshihara and Takaiwa, 1996, Plant Cell Physiol 37:107) are inserted into the −90 position of the CaMV 35S promoter which are then fused to the DNA fragments encoding the in-frame translation of lunasin and lunasin-del peptides. The DNA constructs are ligated to the binary vector, pKYLX71 (Lloyd et al., 1992, Science 258:1773) for Agrobacterium transformation and to pGEM-3Zf(+) vector (Promega) for biolistic transformation (Cho et al., 1995, Plant Mol Biol Rept 13:255). Agrobacterium-mediated transformation using the cotyledon-specific DNA constructs is utilized for most dicots, i.e. legumes (soybean, peas, peanuts and kidney beans), Arabidopsis thaliana and tobacco. For monocots like the cereal grain crops, wheat, rice, barley, rye and corn, the biolistic method of transformation is utilized using the endosperm-specific DNA constructs. The expression of the lunasin peptide in the developing seeds of all these plant species are monitored by immunolocalization using antibodies derived specifically to the carboxyl end epitope of the lunasin peptide.

DH5 E. coli cells = assay: Expression of Gm2S-1 peptides in bacteria: disruption of bacterial cell division (filamentation); type: cell-based; conditions: basal expression from pFLAG-1 in DH5 E. coli cells
Text: We sought to produce purified Gm2S-1-derived peptides, including lunasin and alisin peptides, for allergenicity tests using bacterial expression vectors. Initially, PCR amplified fragments that encode lunasin and a lunasin deletion (lunasin-del) mutant (with the 9 aspartic acid deleted from the carboxyl end) were first cloned into pGEM-T (Promega) PCR cloning vector, then cut with EcoR1 and HindIII to release lunasin and lunasin-del gene fragment which were then subcloned into pFLAG-1 bacterial expression vector (Kodak/IBI). Lunasin and lunasin-del pFLAG constructs were used to transform competent DH5 E. coli cells using standard heat shock protocol.
Similar mitotic disruption is observed using a large panel of lunasin and alisin deletion mutant peptides (lunasin-del-n and alisin-del-n) and lunasin/alisin-like synthetic peptides (Gm2S-1-syn-n). […]

Molecule	mitotic disruption, active peptides in mammalian studies (mammalian cells)	mitotic disruption, active peptides in plant transformation studies [1]	formation of elongated and non-septated bacterial filaments (DH5 E. coli cells)
lunasin-del-15: SEQ ID NO:2, residues 48-55—MRG-octa-aspartate fusion protein (MEKIQGRG; C-terminal MRG and octa-aspartate)	active	active	
lunasin-del-18: SEQ ID NO:2, residues 48-55—octa-glutamate fusion protein (MEKIQGRG; C-terminal octa-glutamate)	active	active	
lunasin-del-19: SEQ ID NO:2, residues 1-21—MRG-deca-glutamate fusion protein (MTKFTILLISLLFCIAHTCSA; C-terminal MRG and deca-glutamate)	active	active	
large subunit peptide: 77 amino acid (8 kDa) large subunit (alisin) of Gm2S-1, residues 82-158 of SEQ ID NO:2 (protein) EGKDEDEEEEGHMQKCCTEMSELRSPKCQCKALQKIMENQSEELEEKQKKKMEKELINLATMCRFGPMIQCDLSSDD			not detected
